Reference: article PMC6114103, “17-DMAG inhibits the multiplication of several Babesia species and Theileria equi on in vitro cultures, and Babesia microti in mice” (International Journal for Parasitology: Drugs and Drug …, 2018)

Legend:
[1] = tested on: B. bigemina (Argentina strain); assay: in vitro multiplication inhibition assay (SYBR Green I fluorescence, 96 h), single drugs and two-drug combinations; format: cell-based, Babesia bigemina; conditions: for IC50: Babesia bigemina, B. bigemina, 96 h, triplicate, mean ± SD, read-out: IC50 on in vitro culture of parasites; for Selectivity index MDBK: ratio IC50 MDBK to IC50 B. bigemina; for Selectivity index NIH/3T3: ratio IC50 NIH/3T3 to IC50 B. bigemina
Method: (§1) Babesia parasite cultures were maintained using a microaerophilic stationary-phase culture system ([Levy and Ristic, 1980]; [Avarzed et al., 1997]; [Igarashi et al., 1998]). Briefly, bovine Babesia parasites were grown in bovine red blood cells (RBC) in the specific complete medium for each species. The medium for B. bovis (Texas strain) contained GIT medium supplemented with 10% bovine serum, while the medium for B. bigemina (Argentina strain) and B. divergens (Germany strain) was Medium 199 and RPMI 1640 medium, respectively, supplemented with 40% bovine serum ([Rizk et al., 2016]). B. caballi (USDA strain) was grown using equine RBC in GIT medium supplemented with 10% equine serum. T. equi (USDA strain) was grown in equine RBC in M199 medium supplemented with 40% equine serum and hypoxanthine (MP Biomedicals, USA) at a final concentration of 13.6 μg/ml. All of the media included 60 U/ml penicillin G, 60 μg/ml streptomycin, and 0.15 μg/ml amphotericin B (Sigma-Aldrich, USA). The cultures were incubated at 37 °C in a humidified chamber with an atmosphere of 5% CO2, 5% O2, and 90% N2.
(§2) The assays were conducted in accordance with the protocol described previously with modification ([Guswanto et al., 2014]). Briefly, the cultures of B. bovis, B. bigemina, B. divergens, B. caballi, and T. equi with a parasitemia of 8%, 3%, 10%, 4%, and 9%, respectively, were harvested and adjusted to 1% parasitemia with fresh RBC before the inhibition assay. The 60 inner wells of a 96-well plate were used in the assay, while the peripheral wells were filled with sterile distillate water to reduce evaporation during incubation. To each well in triplicate, 2.5 μl of infected RBC (5 μl for B. divergens, B. caballi, and T. equi) was added and mixed with a culture medium containing the drug to a total volume of 100 μl. The stock solution of 17-DMAG, DA, and AV was dissolved in a culture medium at various concentrations using two-fold dilution. A culture medium containing DMSO at a final concentration of 0.2% was added to the well with infected RBC as a positive control and to the well with uninfected RBC as a negative control. Furthermore, a drug combination assay was conducted in parallel with the single drug assay at the constant ratio in accordance with the Chou–Talalay method ([Chou, 2006]). In the same plate with a single drug inhibition assay, a two-drug combination (DA+17-DMAG, DA + AV, and 17-DMAG + AV) at concentrations of 0.25 x IC50, 0.5 x IC50, IC50, 2 x IC50, and 4 x IC50 was added to the well containing infected RBC in triplicate. The plate was incubated in a humidified incubator with 5% CO2, 5% O2, and 90% N2. After 96 h, 100 μl of a lysis buffer containing SYBR Green I was added to each well. The plate was wrapped with aluminum foil to avoid direct light exposure and incubated at room temperature. After incubation for 6 h, fluorescence values were measured using a fluorescence spectrophotometer (Fluoroskan Ascent, Thermo Fisher Scientific, USA) with the excitation and emission wavelength at 485 nm and 518 nm, respectively. The fluorescence data were subtracted from the negative control and used to calculate the IC50.
(§3) The IC50 of 17-DMAG, DA, and AV was calculated from the percentage of inhibition on the in vitro multiplication of all tested species using non-linear regression (curve fit), available in GraphPad Prism (GraphPad Software Inc., USA). Combination index (CI) values for the drug combination were calculated using CompuSyn software ([Chou, 2006]). Since the chemotherapy effect is preferable at the highest inhibition, the degree of synergism was determined as the weighted average of CI values using a formula ((1 x IC50) + (2 x IC75) + (3 x IC90) + (4 x IC95))/10 ([Chou, 2006]). The differences among groups regarding the parasitemia, hematology profiles, and body weight in the B. microti–infected mouse model were analyzed using Student's t-test, available in GraphPad Prism software.

[2] = tested on: B. divergens (Germany strain); assay: as above; format: cell-based, Babesia divergens; conditions: for IC50: Babesia divergens, B. divergens, 96 h, triplicate, mean ± SD, read-out: IC50 on in vitro culture of parasites; for Selectivity index MDBK: ratio IC50 MDBK to IC50 B. divergens; for Selectivity index NIH/3T3: ratio IC50 NIH/3T3 to IC50 B. divergens
Method: as §1, §2, §3

[3] = tested on: B. microti (Munich strain); assay: inhibition assay using a B. microti-infected mouse model; format: in vivo, BALB/c mice; conditions: 5 consecutive days; for day p.i. on which parasite no longer detected in blood smears via microscopy (parasite clearance): 17-DMAG + DA 15 + 15, 17-DMAG + AV 15 + 10, DA + AV 15 + 10 mg/kg BW
Method: B. microti (Munich strain) was recovered from -80 °C stock in two 6-week female Balb/c mice (Clea, Japan). The parasitemia was monitored every 2 days. […] The inhibitory effect of 17-DMAG was also determined using a B. microti mouse model according to the previous protocol ([Goo et al., 2010]). Briefly, 35 female BALB/c mice aged 8 weeks received an intraperitoneal injection of 1 × 10^7 of B. microti-infected RBC and were divided into seven groups. Another group consisting of five mice was kept uninfected and untreated as a control. The multiplication of B. microti was observed from blood smears after staining with Giemsa using a light microscope. The drug treatment was initiated to all infected mice on day five, after the parasitemia reached approximately 1%, and continue to the total of five consecutive days. Group 1 was treated with 4% DMSO in saline water as a control intraperitoneally. […] The parasitemia was estimated from Giemsa-stained blood smears using microscopy in approximately 5000 RBC. Furthermore, the hematology profiles including RBC, hemoglobin, and hematocrit were measured from 10 μl of mouse blood using an automatic hematology analyzer (Celltac α MEK-6450, Nihon Kohden, Tokyo, Japan). The rate of parasitemia, hematology profiles, and mouse body weight was monitored for 60 days. The experiment was repeated once so each group contained 10 mice. […] Combination index (CI) values for the drug combination were calculated using CompuSyn software ([Chou, 2006]). […] The differences among groups regarding the parasitemia, hematology profiles, and body weight in the B. microti-infected mouse model were analyzed using Student's t-test, available in GraphPad Prism software. The difference was considered significant if P < 0.05.

[4] = 17-DMAG 30, DA 25, AV 20 mg/kg BW

Compound	IC50 [1] [nM]	Selectivity index MDBK [1]	Selectivity index NIH/3T3 [1]	IC50 [2] [nM]	Selectivity index MDBK [2]	Selectivity index NIH/3T3 [2]	day p.i. on which parasite no longer detected in blood smears via microscopy (parasite clearance) [3, 4] [day p.i.]	peak parasitemia ([3]; 17-DMAG 30 mg/kg BW intraperitoneal, peak on day 10 p.i., 10 mice) [%]	inhibition of the multiplication of B. microti in mice ([3]; 17-DMAG 30, DA 25, AV 20 mg/kg BW, combinations 17-DMAG 15 with DA 15 or AV 10 mg/kg BW)
O=C1C(O)=C([C@H]2CC[C@H](c3ccc(Cl)cc3)CC2)C(=O)c2ccccc21 [AV, atovaquone]	706 ± 38.7	>57	>57	13.4 ± 1.4	>2985	>2985	≤ 28	–	–
CO[C@H]1/C=C\C=C(/C)C(=O)NC2=CC(=O)C(NCCN(C)C)=C(C[C@@H](C)C[C@H](OC)[C@H](O)[C@@H](C)/C=C(\C)[C@@H]1OC(N)=O)C2=O [17-DMAG, 17-dimethylaminoethylamino-17-demethoxygeldanamycin]	62.4 ± 1.9	141	248	184 ± 3.2	48	84	36	4.7 ± 2.0	effectively inhibited
